PMC9490236, “Accurate de novo design of membrane-traversing macrocycles” (Cell, 2022)
“And” between values parts separate entries of the source, which are not always exact repeats. Identical values can stand only once. Like-named read-outs stand apart in the source and are kept apart here. Where a SMILES comes first, the peptide text is derived from it. [ ]: non-standard residue; d: D form. dNMeI = CC[C@@H](C)[C@@H](NC)C(=O)O; NMeL = CN[C@@H](CC(C)C)C(=O)O

Experiment: Pharmacokinetics and oral bioavailability of D11.3 in male Swiss albino mice (IV, PO, SQ)
Format: in vivo
Settings: for MRT last: read-out: MRT0-last
Description: In vivo bioavailability assays were conducted in mice and rats. D8.3.p1 and D10.1 were studied in female Balb/C mice by van Voorhis group at University of Washington. D11.2 was evaluated in Sprague Dawley (SD) rats by Robert Griffin’s group at Takeda Pharmaceuticals. D11.3 was studied in the male swiss albino mice by the contract research organization, GVK Biosciences Pvt. Ltd., Hyderabad, India. All animals used in these studies were handled in strict accordance with practices made to minimize suffering. All animal experiments conducted at the University of Washington, USA, and Takeda Pharmaceuticals, USA were approved by the Institutional Animal Care and Use Committee. Animal studies at GVK Biosciences were reviewed and approved by the Institutional Animal Ethics Committee of GVK Biosciences.
We selected four designed macrocycles with diverse structures and in vitro rates of permeability for in vivo oral bioavailability studies in the rodent models. Due to the intensive resource requirements for such studies, these studies were conducted by three different research groups. D8.3.p1 and D10.1 were studied in female Balb/C mice by van Voorhis group at University of Washington. D11.2 was evaluated in Sprague Dawley (SD) rats by Robert Griffin’s group at Takeda Pharmaceuticals. D11.3 was studied in the male swiss albino mice by the contract research organization, GVK Biosciences Pvt. Ltd., Hyderabad, India.
Pharmacokinetic properties of D11.3 were evaluated by the contract research organization, GVK Bio in Swiss Albino male mice after dosing the peptides through oral gavage (PO), subcutaneous (SQ), and intravenous (IV) routes. Plasma samples were collected at multiple time points up to 24 hours. Animals were dosed with 27 gauge needle through tail vein for IV, gastric gavage needle for PO, and 27 gauge needle on dorsal side for SQ. Plasma concentrations were determined using LC-MS/MS based quantification. Pharmacokinetic parameters were determined using non-compartmental analysis with Phoenix software version 8.1.
Dosing vehicle: DMSO (10%) + 10% solutol in PBS (90%) (IV, PO, SQ)
Dose volume: […] (PO, SQ); […] (IV)
Dose: 10 mg/kg (PO) 1 mg/kg (IV), 5mg/kg (SQ)

[1] = male, Swiss albino, mouse, plasma, IV 1.00 mg/kg
[2] = male, Swiss albino, mouse, plasma, PO 10.00 mg/kg
[3] = male, Swiss albino, mouse, plasma, SC 5.00 mg/kg

## CC[C@@H](C)[C@H]1NC(=O)[C@H]([C@@H](C)CC)NC(=O)[C@H](CC(C)C)N(C)C(=O)[C@H]2CCCN2C(=O)[C@@H]([C@H](C)CC)NC(=O)[C@@H]([C@H](C)CC)N(C)C(=O)[C@H](CC(C)C)NC(=O)[C@H]2CCCN2C(=O)[C@@H]2CCCN2C(=O)[C@H](C(C)C)NC(=O)[C@H]2CCCN2C1=O [Design D11.3, VAL PRO DPRO LEU *DILE DILE DPRO *LEU ILE DILE DPRO] (cyclo(I[dI][dP]VP[dP]L[dNMeI][dI][dP][NMeL]))
IV 1.00 mg/kg
  AUCExtra: 3.09%
IV 1.00 mg/kg, 0.25 h, individual mice M1, M2, M3, 1 mg/kg
  Plasma concentration: 3305.02 ng/mL and 3779.15 ng/mL and 2973.54 ng/mL
IV 1.00 mg/kg, 1 h, individual mice M1, M2, M3, 1 mg/kg
  Plasma concentration: 931.71 ng/mL and 1218.22 ng/mL and 1283.47 ng/mL
IV 1.00 mg/kg, 3 h, individual mice M1, M2, M3, 1 mg/kg
  Plasma concentration: 887.86 ng/mL and 328.77 ng/mL and 318.62 ng/mL
IV 1.00 mg/kg, 5 h, individual mice M1, M2, M3, 1 mg/kg
  Plasma concentration: 240.02 ng/mL and 271.55 ng/mL and 289.17 ng/mL
IV 1.00 mg/kg, 8 h, individual mice M1, M2, M3, 1 mg/kg
  Plasma concentration: 399.46 ng/mL and 124.26 ng/mL and 182.53 ng/mL
IV 1.00 mg/kg, 24 h, individual mice M1, M2, M3, 1 mg/kg
  Plasma concentration: 17.65 ng/mL and 30.97 ng/mL and 34.16 ng/mL
IV 1 mg/kg, PO 10 mg/kg, SQ 5 mg/kg
  health of animals during the study: healthy throughout the duration of the study
PO 10.00 mg/kg
  AUCExtra: 1.91%
PO 10.00 mg/kg, 0.08 h, individual mice M1, M2, M3, 10 mg/kg
  Plasma concentration: 47.49 ng/mL and 76.49 ng/mL and 84.94 ng/mL
PO 10.00 mg/kg, 0.25 h, individual mice M1, M2, M3, 10 mg/kg
  Plasma concentration: 454 ng/mL and 804.64 ng/mL and 992.29 ng/mL
PO 10.00 mg/kg, 0.5 h, individual mice M1, M2, M3, 10 mg/kg
  Plasma concentration: 2858.02 ng/mL and 2832.99 ng/mL and 1880.71 ng/mL
PO 10.00 mg/kg, 1 h, individual mice M1, M2, M3, 10 mg/kg
  Plasma concentration: 2950.38 ng/mL and 3417.67 ng/mL and 2525.44 ng/mL
PO 10.00 mg/kg, 3 h, individual mice M1, M2, M3, 10 mg/kg
  Plasma concentration: 3249.94 ng/mL and 3660.57 ng/mL and 3578.88 ng/mL
PO 10.00 mg/kg, 5 h, individual mice M1, M2, M3, 10 mg/kg
  Plasma concentration: 3313.72 ng/mL and 2427.94 ng/mL and 1866.9 ng/mL
PO 10.00 mg/kg, 8 h, individual mice M1, M2, M3, 10 mg/kg
  Plasma concentration: 1232.5 ng/mL and 1764.28 ng/mL and 1439.78 ng/mL
PO 10.00 mg/kg, 24 h, individual mice M1, M2, M3, 10 mg/kg
  Plasma concentration: 177.35 ng/mL and 48.47 ng/mL and 59.29 ng/mL
SC 5.00 mg/kg
  AUCExtra: 30.33%
SC 5.00 mg/kg, 0.08 h, Mean
  Plasma concentration: 10.15 ng/mL
SC 5.00 mg/kg, 0.25 h, Mean
  Plasma concentration: 35.04 ng/mL
SC 5.00 mg/kg, 0.5 h, Mean
  Plasma concentration: 38.67 ng/mL
SC 5.00 mg/kg, 0.5 h, individual mice M1, M2, M3, 5 mg/kg
  Plasma concentration: 23.29 ng/mL and 70.26 ng/mL and 22.46 ng/mL
SC 5.00 mg/kg, 1 h, individual mice M1, M2, M3, 5 mg/kg
  Plasma concentration: 52.72 ng/mL and 45.05 ng/mL and 34.59 ng/mL
SC 5.00 mg/kg, 3 h, individual mice M1, M2, M3, 5 mg/kg
  Plasma concentration: 141.22 ng/mL and 103.85 ng/mL and 139.25 ng/mL
SC 5.00 mg/kg, 24 h, Mean
  Plasma concentration: 50.51 ng/mL
male, Swiss Albino, mouse, plasma, iv, 1 mg/kg, IV 1.00 mg/kg, 0.08 h, individual mice M1, M2, M3, read-out: Plasma concentration
  level at 0.08 h: 3320 ng/mL
male, Swiss Albino, mouse, plasma, iv, 1 mg/kg, IV 1.00 mg/kg, 0.5 h, individual mice M1, M2, M3, read-out: Plasma concentration
  level at 0.5 h: 2570 ng/mL
male, Swiss albino, mouse, plasma, sc, 5 mg/kg, SC 5.00 mg/kg, 5 h, individual mice M1, M2, M3, read-out: Plasma concentration
  level at 5 h: 117 ng/mL
male, Swiss albino, mouse, plasma, sc, 5 mg/kg, SC 5.00 mg/kg, 8 h, individual mice M1, M2, M3, read-out: Plasma concentration
  level at 8 h: 153 ng/mL
[1]
  AUC(0-inf): 7190 ng·h/mL
  AUC(0-t): 6970 ng·h/mL
  C0: 3960 ng/mL
  Vd: 1.12 L/kg
  clearance: 2.32 mL/min/kg
[2]
  AUC(0-inf): 28800 ng·h/mL
  AUC(0-t): 28200 ng·h/mL
  Cmax: 3500 ng/mL
  Tmax: 3 h
male, Swiss albino, mouse, plasma, PO 10.00 mg/kg vs IV 1.00 mg/kg, read-out: F (oral bioavailability)
  bioavailability: 40% and 40.1%
[3]
  AUC(0-inf): 3050 ng·h/mL
  AUC(0-t): 2120 ng·h/mL
  Cmax: 148 ng/mL
  Tmax: 5 h
mouse, in vivo, IV 1.00 mg/kg
  half-life: 5.58 h
  MRT last: 4.64 h
mouse, in vivo, PO 10.00 mg/kg
  MRT last: 6.32 h
mouse, in vivo, SC 5.00 mg/kg
  MRT last: 10.7 h
